This assay has as its system NRF2 (NQO1 activity as marker for NRF2 activation), BEAS-2B cells. The experiment in a line: BEAS-2B NQO1 MTT Assay. The note with it: Homo sapiens, EC50 of NQO1 specific activity induction, 48 hours incubation, read-out: EC50. In kind it is cell-based. Put shortly:
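BEAS-2B cells were exposed to compound for 48 h at 37° C, 5% CO2, then lysed. NQO1 activity was measured kinetically by MTT reduction at 570 nm over 30 minutes; EC50 came from 3-parameter fit of Delta OD/min versus log concentration.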

The term EC50 denotes the concentration at which the effect is half-maximal.

Take `CC[C@@H]1CN(Cc2cc([C@@H](c3ccc4c(nnn4CC)c3C)C(C)(C)NC(N)=O)ccc2C)S(=O)(=O)c2ccccc2O1` [Example 99, 1-((S)-1-(3-(((R)-4-ethyl-1,1-dioxido-3,4-dihydro-2H-benzo[b][1,4,5]oxathiazepin-2-yl)methyl)-4-methylphenyl)-1-(1-ethyl-4-methyl-1H-benzo[d][1,2,3]triazol-5-yl)-2-methylpropan-2-yl)urea]: the EC50 was in the range of 100 to 1000 nM.

On to `CC[C@@H]1CN(Cc2cc([C@@H](c3ccc4c(nnn4C)c3C)C(C)(C)C(=O)NC3CCOC3)ccc2C)Cc2cnccc2O1` (stereo partly drawn) [Example 100, (3S)-3-(1,4-Dimethyl-1H-benzo[d][1,2,3]triazol-5-yl)-3-(3-(((R)-2-ethyl-2,3-dihydropyrido[3,44][1,4]oxazepin-4(5H)-yl)methyl)-4-methylphenyl)-2,2-dimethyl-N-(tetrahydrofuran-3-yl)propanamide], for which the EC50 was 100 to 1000 nM. The value for `CC[C@@H]1CN(Cc2cc([C@@H](c3ccc4c(nnn4C)c3C)C(C)(C)C(=O)NC3CCS(=O)(=O)C3)ccc2C)Cc2cnccc2O1` (stereo partly drawn) [Example 101, (3S)-3-(1,4-Dimethyl-1H-benzo[d][1,2,3]triazol-5-yl)-N-(1,1-dioxidotetrahydrothio-phen-3-yl)-3-(3-(((R)-2-ethyl-2,3-dihydropyrido[3,4-f][1,4]oxazepin-4(5H)-yl)methyl)-4-methylphenyl)-2,2-dimethylpropanamide] was 10 to 100 nM; that for `CC[C@@H]1CN(Cc2cc([C@@H](c3ccc4c(nnn4CC)c3C)C(C)(C)C(=O)NCCNC)ccc2C)S(=O)(=O)c2cccnc2O1` [Example 102, (S)-3-(3-(((R)-4-Ethyl-1,1-dioxido-3,4-dihydro-2H-pyrido[2,3-b][1,4,5]oxathiazepin-2-yl)methyl)-4-methylphenyl)-3-(1-ethyl-4-methyl-1H-benzo[d][1,2,3]triazol-5-yl)-2,2-dimethyl-N-(2-(methylamino)ethyl) propanamide] was 10 to 100 nM.

`CC[C@H]1Cc2ncccc2S(=O)(=O)N(Cc2cc([C@H](CC(=O)Nc3cccnc3)c3ccc4c(nnn4CC)c3C)ccc2C)C1` [Example 103, (S)-3-(3-(((S)-4-Ethyl-1,1-dioxido-4,5-dihydropyrido[2,3-f][1,2]thiazepin-2(3H)-yl)methyl)-4-methylphenyl)-3-(1-ethyl-4-methyl-1H-benzo[d][1,2,3]triazol-5-yl)-N-(pyridin-3-yl)propanamide]: the EC50 was 10 to 100 nM. Regarding `CC[C@@H]1CN(Cc2cc([C@@H](c3ccc4c(nnn4CC)c3C)C(C)(C)C(=O)NCc3ncc[nH]3)ccc2C)S(=O)(=O)c2cccnc2O1` [Example 104, (S)-N-((1H-Imidazol-2-yl)methyl)-3-(3-(((R)-4-ethyl-1,1-dioxido-3,4-dihydro-2H-pyrido[2,3-b][1,4,5]oxathiazepin-2-yl)methyl)-4-methylphenyl)-3-(1-ethyl-4-methyl-1H-benzo[d][1,2,3]triazol-5-yl)-2,2-dimethylpropanamide], the EC50 was 100 to 1000 nM. With `CC[C@H]1Cc2ncccc2S(=O)(=O)N(Cc2cc([C@H](CC(=O)Nc3cncnc3)c3ccc4c(nnn4CC)c3C)ccc2C)C1` [Example 105, (S)-3-(3-(((S)-4-Ethyl-1,1-dioxido-4,5-dihydropyrido[2,3-f][1,2]thiazepin-2(3H)-yl)methyl)-4-methylphenyl)-3-(1-ethyl-4-methyl-1H-benzo[d][1,2,3]triazol-5-yl)-N-(pyrimidin-5-yl)propanamide] the figure was 10 to 100 nM. With `CC[C@@H]1CN(Cc2cc([C@@H](c3ccc4c(nnn4CC)c3C)C(C)(C)C(=O)NC3CCS(=O)(=O)C3)ccc2C)S(=O)(=O)c2cccnc2O1` (stereo partly drawn) [Example 106, (3S)-N-(1,1-Dioxidotetrahydrothio-phen-3-yl)-3-(3-(((R)-4-ethyl-1,1-dioxido-3,4-dihydro-2H-pyrido[2,3-b][1,4,5]oxathiazepin-2-yl)methyl)-4-methylphenyl)-3-(1-ethyl-4-methyl-1H-benzo[d][1,2,3]triazol-5-yl)-2,2-dimethylpropanamide] the figure was 100 to 1000 nM; with `CC[C@@H]1CN(Cc2cc([C@H](CC(=O)Nc3ccnnc3)c3ccc4c(nnn4CC)c3C)ccc2C)S(=O)(=O)c2cccnc2O1` [Example 107, (S)-3-(3-(((R)-4-Ethyl-1,1-dioxido-3,4-dihydro-2H-pyrido[2,3-b][1,4,5]oxathiazepin-2-yl)methyl)-4-methylphenyl)-3-(1-ethyl-4-methyl-1H-benzo[d][1,2,3]triazol-5-yl)-N-(pyridazin-4-yl)propanamide], 100 to 1000 nM. The value for `CC[C@@H]1CN(Cc2cc([C@H](CC(=O)Nc3ccncn3)c3ccc4c(nnn4CC)c3C)ccc2C)S(=O)(=O)c2cccnc2O1` [Example 108, (S)-3-(3-(((R)-4-Ethyl-1,1-dioxido-3,4-dihydro-2H-pyrido[2,3-b][1,4,5]oxathiazepin-2-yl)methyl)-4-methylphenyl)-3-(1-ethyl-4-methyl-1H-benzo[d][1,2,3]triazol-5-yl)-N-(pyrimidin-4-yl)propanamide] was 100 to 1000 nM. With `CC[C@@H]1CN(Cc2cc([C@H](CC(=O)Nc3cncnc3)c3ccc4c(nnn4CC)c3C)ccc2C)S(=O)(=O)c2cccnc2O1` [Example 109, (S)-3-(3-(((R)-4-Ethyl-1,1-dioxido-3,4-dihydro-2H-pyrido[2,3-b][1,4,5]oxathiazepin-2-yl)methyl)-4-methylphenyl)-3-(1-ethyl-4-methyl-1H-benzo[d][1,2,3]triazol-5-yl)-N-(pyrimidin-5-yl)propanamide], the EC50 was in the range of 10 to 100 nM. With `CC[C@@H]1CN(Cc2cc([C@H](CC(=O)Nc3cccnc3)c3ccc4c(nnn4CC)c3C)ccc2Cl)S(=O)(=O)c2cccnc2O1` [Example 110, (S)-3-(4-Chloro-3-(((R)-4-ethyl-1,1-dioxido-3,4-dihydro-2H-pyrido[2,3-b][1,4,5]oxathiazepin-2-yl)methyl)phenyl)-3-(1-ethyl-4-methyl-1H-benzo[d][1,2,3]triazol-5-yl)-N-(pyridin-3-yl)propanamide] the figure was 10 to 100 nM; with `CC[C@@H]1CN(Cc2cc([C@@H](c3ccc4c(nnn4C)c3C)C(C)(C)C(=O)Nc3ccncc3)ccc2C)Cc2cnccc2O1` [Example 112, (S)-3-(1,4-Dimethyl-1H-benzo[d][1,2,3]triazol-5-yl)-3-(3-(((R)-2-ethyl-2,3-dihydropyrido[3,4-f][1,4]oxazepin-4(5H)-yl)methyl)-4-methylphenyl)-2,2-dimethyl-N-(pyridin-4-yl)propanamide], 100 to 1000 nM. The value for `CC[C@@H]1CN(Cc2cc([C@@H](c3ccc4c(nnn4CC)c3C)C(C)(C)C(=O)N[C@H]3CCOC3)ccc2C)S(=O)(=O)c2cccnc2O1` [Example 113, (S)-3-(3-(((R)-4-Ethyl-1,1-dioxido-3,4-dihydro-2H-pyrido[2,3-b][1,4,5]oxathiazepin-2-yl)methyl)-4-methylphenyl)-3-(1-ethyl-4-methyl-1H-benzo[d][1,2,3]triazol-5-yl)-2,2-dimethyl-N-((S)-tetrahydrofuran-3-yl)propanamide] was 10 to 100 nM; that for `CC[C@@H]1CN(Cc2cc([C@@H](c3ccc4c(nnn4CC)c3C)C(C)(C)C(=O)N[C@@H]3CCOC3)ccc2C)S(=O)(=O)c2cccnc2O1` [Example 114, (S)-3-(3-(((R)-4-Ethyl-1,1-dioxido-3,4-dihydro-2H-pyrido[2,3-b][1,4,5]oxathiazepin-2-yl)methyl)-4-methylphenyl)-3-(1-ethyl-4-methyl-1H-benzo[d][1,2,3]triazol-5-yl)-2,2-dimethyl-N-((R)-tetrahydrofuran-3-yl)propanamide] was 10 to 100 nM.
